{"source": "patent US12077503B2", "about": "“Substituted cyclic amides and their use as herbicides” (FMC CORPORATION, priority 2015, dated 2024)", "type_in_all_cases": "in vivo", "key": {"[1]": {"test_system": "Kochia (Kochia scoparia)", "test": "Test A preemergence", "method_in_brief": "(§1)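 Compounds were formulated in a non-phytotoxic solvent mixture with surfactant and applied as a preemergence directed soil spray after seeding, or sprayed postemergence over plants 2 to 10 cm tall at the one- to two-leaf stage. Evaluation after about 10 d compared treated with untreated controls, using a scale from 0 (no effect) to 100 (complete control).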"}, "[2]": {"test_system": "barnyardgrass (Echinochloa crus-galli)", "test": "Test A preemergence", "method_in_brief": "as §1"}, "[3]": {"test_system": "giant foxtail (Setaria faberii)", "test": "Test A preemergence", "method_in_brief": "as §1"}, "[4]": {"test_system": "pigweed (Amaranthus retroflexus)", "test": "Test A preemergence"}, "[5]": {"test_system": "ragweed (common ragweed, Ambrosia elatior)", "test": "Test A preemergence", "method_in_brief": "as §1"}, "[6]": {"test_system": "ryegrass, Italian (Italian ryegrass, Lolium multiflorum)", "test": "Test A preemergence", "method_in_brief": "as §1"}, "[7]": {"test_system": "Galium (catchweed bedstraw, Galium aparine)", "test": "Test A postemergence", "method_in_brief": "as §1"}, "[8]": {"test_system": "Kochia (Kochia scoparia)", "test": "Test A postemergence", "method_in_brief": "as §1"}, "[9]": {"test_system": "barnyardgrass (Echinochloa crus-galli)", "test": "Test A postemergence", "details": "postemergence", "method_in_brief": "as §1"}, "[10]": {"test_system": "blackgrass (Alopecurus myosuroides)", "test": "Test A postemergence", "details": "postemergence", "method_in_brief": "as §1"}, "[11]": {"test_system": "corn (Zea mays)", "test": "Test A postemergence", "details": "postemergence", "method_in_brief": "as §1"}, "[12]": {"test_system": "giant foxtail (Setaria faberii)", "test": "Test A postemergence", "method_in_brief": "as §1"}, "[13]": {"test_system": "pigweed (Amaranthus retroflexus)", "test": "Test A postemergence", "method_in_brief": "as §1"}, "[14]": {"test_system": "ragweed (common ragweed, Ambrosia elatior)", "test": "Test A postemergence", "method_in_brief": "as §1"}, "[15]": {"test_system": "ryegrass, Italian (Italian ryegrass, Lolium multiflorum)", "test": "Test A postemergence", "method_in_brief": "as §1"}, "[16]": {"test_system": "wheat (Triticum aestivum)", "test": "Test A postemergence", "method_in_brief": "as §1"}, "[17]": {"test_system": "barnyardgrass (Echinochloa crus-galli)", "test": "Test B flooded paddy test", "details": "Flood, 250 g ai/ha; 0 to 100 scale where 0 is no effect and 100 is complete control; 13 to 15 d", "method_in_brief": "(§2)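 2-leaf plants; pots flooded 3 cm over soil; cpd added to paddy water; depth held; greenhouse 13–15 d; visual rating vs controls, 0 = no effect, 100 = complete control.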"}, "[18]": {"test_system": "ducksalad (Heteranthera limosa)", "test": "Test B flooded paddy test", "details": "Flood, 250 g ai/ha; 0 to 100 scale where 0 is no effect and 100 is complete control; 13 to 15 d", "method_in_brief": "as §2"}, "[19]": {"test_system": "rice (Oryra sativa)", "test": "Test B flooded paddy test", "details": "Flood, 250 g ai/ha; 0 to 100 scale where 0 is no effect and 100 is complete control; 13 to 15 d", "method_in_brief": "as §2"}, "[20]": {"test_system": "sedge, umbrella (small-flower umbrella sedge, Cyperus difformis)", "test": "Test B flooded paddy test", "details": "Flood, 250 g ai/ha; 0 to 100 scale where 0 is no effect and 100 is complete control; 13 to 15 d", "method_in_brief": "as §2"}, "[21]": {"details": "125 g ai/ha, Preemergence, visual injury after approximately 10 d, 0 to 100 scale where 0 is no effect and 100 is complete control"}, "[22]": {"details": "500 g ai/ha, preemergence, 0 to 100 scale, 0 = no effect, 100 = complete control"}, "[23]": {"details": "125 g ai/ha, postemergence, visual rating after approx. 10 d, 0 to 100 scale (0 no effect, 100 complete control)"}, "[24]": {"details": "500 g ai/ha, postemergence, visual injury, 0 to 100 scale (0 no effect, 100 complete control), approx. 10 d"}, "[25]": {"details": "125 g ai/ha, visual rating after approx. 10 d, 0 to 100 scale (0 no effect, 100 complete control)"}, "[26]": {"details": "500 g ai/ha, visual injury, 0 to 100 scale (0 no effect, 100 complete control), approx. 10 d"}, "[27]": {"details": "125 g ai/ha, preemergence, 0 to 100 scale (0 no effect, 100 complete control)"}, "[28]": {"details": "Preemergence, 500 g ai/ha, visual injury approx. 10 d"}, "[29]": {"details": "125 g ai/ha, postemergence, visual injury rating on 0 to 100 scale (0 no effect, 100 complete control), approx. 10 d"}, "[30]": {"details": "Postemergence, 500 g ai/ha, 0 to 100 scale where 0 is no effect and 100 is complete control"}, "[31]": {"details": "125 g ai/ha, visual injury rating on 0 to 100 scale (0 no effect, 100 complete control), approx. 10 d"}, "[32]": {"details": "500 g ai/ha, 0 to 100 scale, 0 no effect, 100 complete control"}}}
{"molecule": "Cc1ccc(C2CNC(=O)C2C(=O)Nc2ccc(F)c(F)c2F)cc1C(F)(F)F", "note": "(racemic) [Compound 681]", "values": [{"measurement": "Plant response rating, Kochia", "setting": "[1]; [21]", "result": 20}, {"measurement": "Plant response rating, Kochia", "setting": "[1]; [22]", "result": 60}, {"measurement": "Plant response rating, Barnyardgrass", "setting": "[2]; [21]", "result": 70}, {"measurement": "Plant response rating, Barnyardgrass", "setting": "[2]; [22]", "result": 80}, {"measurement": "Plant response rating, Foxtail, Giant", "setting": "[3]; [21]", "result": 90}, {"measurement": "Plant response rating, Foxtail, Giant", "setting": "[3]; [22]", "result": 90}, {"measurement": "Plant response rating, Pigweed", "setting": "[4]; [21]", "result": 0}, {"measurement": "Plant response rating, Pigweed", "setting": "[4]; [22]", "result": 30}, {"measurement": "Plant response rating, Ragweed", "setting": "[5]; [21]", "result": 0}, {"measurement": "Plant response rating, Ragweed", "setting": "[5]; [22]", "result": 0}, {"measurement": "Plant response rating, Ryegrass, Italian", "setting": "[6]; [21]", "result": 0}, {"measurement": "Plant response rating, Ryegrass, Italian", "setting": "[6]; [22]", "result": 30}, {"measurement": "Plant response rating, Galium", "setting": "[7]; [23]", "result": 30}, {"measurement": "Plant response rating, Galium", "setting": "[7]; [24]", "result": 50}, {"measurement": "Plant response rating, Kochia", "setting": "[8]; [23]", "result": 0}, {"measurement": "Plant response rating, Kochia", "setting": "[8]; [24]", "result": 40}, {"measurement": "Plant response rating, Barnyardgrass", "setting": "[9]; [25]", "result": 40}, {"measurement": "Plant response rating, Barnyardgrass", "setting": "[9]; [26]", "result": 90}, {"measurement": "Plant response rating, Blackgrass", "setting": "[10]; [25]", "result": 0}, {"measurement": "Plant response rating, Blackgrass", "setting": "[10]; [26]", "result": 30}, {"measurement": "Plant response rating, Corn", "setting": "[11]; [25]", "result": 0}, {"measurement": "Plant response rating, Corn", "setting": "[11]; [26]", "result": 30}, {"measurement": "Plant response rating, Foxtail, Giant", "setting": "[12]; [23]", "result": 0}, {"measurement": "Plant response rating, Foxtail, Giant", "setting": "[12]; [24]", "result": 30}, {"measurement": "Plant response rating, Pigweed", "setting": "[13]; [23]", "result": 0}, {"measurement": "Plant response rating, Pigweed", "setting": "[13]; [24]", "result": 0}, {"measurement": "Plant response rating, Ragweed", "setting": "[14]; [23]", "result": 0}, {"measurement": "Plant response rating, Ragweed", "setting": "[14]; [24]", "result": 0}, {"measurement": "Plant response rating, Ryegrass, Italian", "setting": "[15]; [23]", "result": 0}, {"measurement": "Plant response rating, Ryegrass, Italian", "setting": "[15]; [24]", "result": 20}, {"measurement": "Plant response rating, Wheat", "setting": "[16]; [23]", "result": 0}, {"measurement": "Plant response rating, Wheat", "setting": "[16]; [24]", "result": 0}, {"measurement": "Plant response rating, Barnyardgrass", "setting": "[17]", "result": 35}, {"measurement": "Plant response rating, Ducksalad", "setting": "[18]", "result": 25}, {"measurement": "Plant response rating, Rice", "setting": "[19]", "result": 0}, {"measurement": "Plant response rating, Sedge, Umbrella", "setting": "[20]", "result": 0}]}
{"molecule": "CN1CC(c2ccc(C(F)(F)F)cc2F)C(C(=O)Nc2ccccc2S(C)(=O)=O)C1=O", "note": "(stereo not drawn) [Compound 473]", "values": [{"measurement": "Plant response rating, Kochia", "setting": "[1]; [27]", "result": 80}, {"measurement": "Kochia plant response rating (0 to 100 scale, 0 is no effect, 100 is complete control)", "setting": "[1]; [28]", "result": 80}, {"measurement": "Plant response rating, Barnyardgrass", "setting": "[2]; [27]", "result": 80}, {"measurement": "Barnyardgrass plant response rating (0 to 100 scale, 0 is no effect, 100 is complete control)", "setting": "[2]; [28]", "result": 100}, {"measurement": "Plant response rating, Foxtail, Giant", "setting": "[3]; [27]", "result": 90}, {"measurement": "Foxtail, Giant plant response rating (0 to 100 scale, 0 is no effect, 100 is complete control)", "setting": "[3]; [28]", "result": 100}, {"measurement": "Plant response rating, Pigweed", "setting": "[4]; [21]", "result": 80}, {"measurement": "Pigweed plant response rating (0 to 100 scale, 0 is no effect, 100 is complete control)", "setting": "[4]; [28]", "result": 90}, {"measurement": "Plant response rating, Ragweed", "setting": "[5]; [21]", "result": 20}, {"measurement": "Ragweed plant response rating (0 to 100 scale, 0 is no effect, 100 is complete control)", "setting": "[5]; [28]", "result": 70}, {"measurement": "Plant response rating, Ryegrass, Italian", "setting": "[6]; [21]", "result": 0}, {"measurement": "Ryegrass, Italian plant response rating (0 to 100 scale, 0 is no effect, 100 is complete control)", "setting": "[6]; [28]", "result": 90}, {"measurement": "Galium plant response rating", "setting": "[7]; [29]", "result": 60}, {"measurement": "Plant response rating, Galium", "setting": "[7]; [30]", "result": 60}, {"measurement": "Kochia plant response rating", "setting": "[8]; [29]", "result": 40}, {"measurement": "Plant response rating, Kochia", "setting": "[8]; [30]", "result": 80}, {"measurement": "Barnyardgrass plant response rating", "setting": "[9]; [31]", "result": 90}, {"measurement": "Plant response rating, Barnyardgrass", "setting": "[9]; [32]", "result": 90}, {"measurement": "Blackgrass plant response rating", "setting": "[10]; [31]", "result": 40}, {"measurement": "Plant response rating, Blackgrass", "setting": "[10]; [32]", "result": 60}, {"measurement": "Corn plant response rating", "setting": "[11]; [31]", "result": 0}, {"measurement": "Plant response rating, Corn", "setting": "[11]; [32]", "result": 40}, {"measurement": "Foxtail, Giant plant response rating", "setting": "[12]; [29]", "result": 70}, {"measurement": "Plant response rating, Foxtail, Giant", "setting": "[12]; [30]", "result": 90}, {"measurement": "Pigweed plant response rating", "setting": "[13]; [29]", "result": 50}, {"measurement": "Plant response rating, Pigweed", "setting": "[13]; [30]", "result": 90}, {"measurement": "Ragweed plant response rating", "setting": "[14]; [29]", "result": 50}, {"measurement": "Plant response rating, Ragweed", "setting": "[14]; [30]", "result": 50}, {"measurement": "Ryegrass, Italian plant response rating", "setting": "[15]; [29]", "result": 0}, {"measurement": "Plant response rating, Ryegrass, Italian", "setting": "[15]; [30]", "result": 40}, {"measurement": "Wheat plant response rating", "setting": "[16]; [29]", "result": 0}, {"measurement": "Plant response rating, Wheat", "setting": "[16]; [30]", "result": 40}, {"measurement": "Plant response rating, Barnyardgrass", "setting": "[17]", "result": 40}, {"measurement": "Plant response rating, Ducksalad", "setting": "[18]", "result": 75}, {"measurement": "Plant response rating, Rice", "setting": "[19]", "result": 20}, {"measurement": "Plant response rating, Sedge, Umbrella", "setting": "[20]", "result": 0}]}
